For experiment [1], the target named is T1, AtOASS (O-acetyl serine sulfhydrylase from Arabidopsis thaliana) (Arabidopsis thaliana, UniProt P47998).
T1 construct: GST (N, cleaved yes); made in house; host or cells: E. coli Rosetta (DE3)
As to the kind of experiment: Isothermal titration calorimetry (ITC) binding to OASS. The settings on record: for Kd: OASS titrated into compound in ITC cell, single binding model; for direct binding to AtOASS by ITC (in vitro screening of purchased virtual hits): result in words. The text has this:
To evaluate the ability of the molecules to bind AtOASS (O-acetyl serine sulfhydrylase from Arabidopsis thaliana), the protein was placed in the ITC syringe and was titrated with the molecules that were placed in the ITC cell (see Examples section below). The direct dissociation binding constant (Kd) was then extracted from the binding curve using a single binding model, wherein a low Kd value corresponds to a stronger binding affinity.
To evaluate the binding of the small molecules to the enzyme OASS, the purified protein was placed in a 6-8 MWCO dialysis bag in 30 mM phosphate buffer, 30 mM NaCl, 1 mM TCEP, and 5% dimethyl sulfoxide. Sequential buffer exchange dialyses were executed for 12 hours each at 4° C. until dilution of >10,000 was achieved. Before the execution of the ITC binding experiment, the OASS was placed in the ITC syringe at a concentration of 400 μM and each of the small molecules was dissolved in the same dialysis buffer to a final concentration of 40 μM in the ITC cell. ITC experiments were conducted by titrating the OASS to the compounds in the cell. The ITC binding constant was evaluated using the build-in analysis software.
The designed de-novo herbicidal compounds were synthesized and evaluated for their in vitro and in planta activity. After dissolving the molecules to a stock of 50 mM in DMSO, binding and competition with the SAT-derived peptides were evaluated using ITC and FP. ITC measures the direct heat change occurring due to the interaction of a pair of molecules. ITC has certain advantages, such as the capability to detect a relatively broad range of binding affinities, being a label-free method, and providing a wide set of interaction parameters, such as affinity, stoichiometry, enthalpy, and entropy of binding. To evaluate the ability of the molecules to bind AtOASS, the protein was placed in the ITC syringe and was titrated with the molecules that were placed in the ITC cell. The direct dissociation binding constant (Kd) was then extracted from the binding curve using a single binding model. Two consecutive experiments were combined using the built in ITC module to enable better quantification. A low Kd value corresponds to a stronger binding affinity.

Experiment [2] concerns the target T2, OASS-SAT complex (AtOASS with SAT-derived peptide) (Arabidopsis thaliana, UniProt P47998).
T2 construct: GST (N, cleaved yes); made in house; host or cells: E. coli Rosetta (DE3)
Put plainly: Fluorescence polarization (FP) competition with FITC-labeled SAT-derived peptide bound to OASS. Format: binding. The settings on record: competition with FITC-SAT peptide 200 nM, OASS 2.2 μM; for IC50: single site inhibition model. Here is the method: Molecules were also tested for their ability to compete with the OASS binding to the SAT-derived peptide via a fluorescence polarization (FP) competition assay wherein the N-terminus labeled peptide was incubated with the AtOASS (see Examples section below). High FP values correspond to the peptide-bound state (low molecule concentrations) and low FP values correspond to the peptide-free state (low FP values). To extract the IC50, the FP data were fitted to a single site inhibition model in PRISM by GraphPad Software. The corresponding IC50 values were extracted, whereas low IC50 values correspond to molecule that better competes with the peptide binding to AtOASS. Fluorescence polarization (FP) measurements were made on samples arrayed in 96-well plates by using BioTek H1 Synergy instrument equipped with FP module. […] The peptide in a concentration of 200 nM was incubated with OASS at a concentration of 2.2 μM in each well. Variable concentrations of each molecule starting from 100 μM down to 0.048 μM were added to evaluate the ability of each molecule to compete off the FITC labeled peptide bound to OASS. Fluorescence experiments were executed with an Em/Exc wavelengths of 480/520 nm. All measurements were done in triplicate. Experimental polarization data from simple and competitive binding experiments were fitted using GraphPad Prism, with error bars representing SD. Molecules were also tested for their ability to compete with the OASS binding to the SAT-derived peptide via a fluorescence polarization (FP) competition assay. The N-terminus labeled peptide was incubated with the AtOASS in each of the wells in a 96-well plate. Various concentrations of the molecules were added and the FP values were recorded. High FP values correspond to the peptide-bound state (low molecule concentrations) and low FP values correspond to the peptide-free state (low FP values). To extract the IC50, the FP data were fitted to a single site inhibition model in graphpad prism. The corresponding IC50 values were extracted. Low IC50 values correspond to molecule that better competes with the peptide binding to AtOASS.

The next experiment has as its system Arabidopsis thaliana. As to the kind of experiment: Root elongation in plates (in planta root elongation assay). Format: in vivo. The settings on record: 168 h, A. thaliana on MS medium plates, 7 days, read-out: Root-growth inhibition %. As to the method: 6-well plates were prepared in a biological hood with sterile half Murashige and Skoog mineral medium (MS; Duchefa, Haarlem, Netherlands) containing 1% sucrose (w/v), pH 5.8. Tested molecules were dissolved in 50 mM DMSO and diluted to various concentrations 1,000-fold greater than the final desired concentration the MS medium maintaining a final concentration of 0.1% DMSO. MS medium with 0.1% DMSO was used as a negative control. After 7 days the plates were scanned and the root length was calculated using the imageJ software. […] Further sterilization was done by washing the seeds with 50% hypochlorite and 0.2% Triton x-100 for 10 minutes followed by five cycles of washing with sterile water. Six seeds were placed in each well, and the plates were covered and sealed with parafilm. Plates were placed vertically at 4° C. for two days and then transferred to a growth chamber for seven days (22-24° C.) at day/light cycles of 16/8 hours. Following the in vitro evaluation, selected molecules were tested for their ability to inhibit A. thaliana root elongation on agar plates. Seeds were plated on medium containing the molecules dissolved in the indicated concentrations and root length was measured after 6 or 7 days when the root in the non-treated plate reached the end of the well.

T1 sequence (P47998 whole entry): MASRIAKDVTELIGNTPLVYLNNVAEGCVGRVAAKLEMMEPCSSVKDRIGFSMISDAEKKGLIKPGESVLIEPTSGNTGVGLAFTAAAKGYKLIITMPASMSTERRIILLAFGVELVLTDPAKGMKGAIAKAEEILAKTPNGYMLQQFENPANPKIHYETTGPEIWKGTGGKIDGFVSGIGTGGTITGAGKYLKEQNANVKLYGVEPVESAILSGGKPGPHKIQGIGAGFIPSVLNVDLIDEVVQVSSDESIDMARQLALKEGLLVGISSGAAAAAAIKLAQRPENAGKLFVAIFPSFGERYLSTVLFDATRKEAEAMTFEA
T2 sequence (P47998 whole entry, one chain of several): as the sequence (P47998 whole entry) above

Consider `O=C(O)c1cc2c(c(S(=O)(=O)Nc3cc(Cl)c(Cl)c(C(=O)O)c3)c1)CCC2` [PJL-29], for which the Kd in experiment [1] is 3.5 µM. In experiment [2], the FP % inhibition was 13% and the IC50 came to 132 µM. Besides, the inhibition at 50 µM in the experiment with Arabidopsis thaliana came out at 11%.

The compound `COc1ccc(C(=O)O)cc1S(=O)(=O)Nc1ccc(NC(=O)CC(C)C)cc1` [PJL-30] displayed a Kd in experiment [1] of 6.6 µM. Besides, in experiment [2], the FP % inhibition is recorded as 11% and the IC50 turned out to be 300 µM. In addition, the inhibition at 50 µM in the experiment on Arabidopsis thaliana turned out to be 0%.

On to `O=C(O)c1cc2c(c(S(=O)(=O)Nc3cccc(NC(=O)C4CC4)c3)c1)CCC2` [PJL-39], for which, in experiment [1], the Kd was 10.1 µM. Further, in experiment [2], the FP % inhibition is listed as 12% and the IC50 was found to be 127 µM. The inhibition at 50 µM in the experiment on Arabidopsis thaliana came out at 18%.

As for `O=C(O)c1cc(F)ccc1NS(=O)(=O)c1cnc(-c2ccc(F)cc2)s1` [PJL-41], in experiment [1], the Kd came out at 4.8 µM and the “direct binding to AtOASS by ITC (in vitro screening of purchased virtual hits)” value is “showed direct binding to AtOASS by ITC”. Also, in experiment [2], the FP % inhibition came to 19% and the IC50 was determined as 34 µM. In addition, the inhibition at 50 µM with Arabidopsis thaliana came out at 85%.

For `Cc1ccnn1-c1cccc(NS(=O)(=O)c2cc(C(=O)O)cc3c2CCC3)c1` [PJL-43], binding in experiment [1] was put at a Kd of 9.9 µM. In addition, in experiment [2], the FP % inhibition is listed as 17% and the IC50 turned out to be 87 µM. The inhibition at 50 µM with Arabidopsis thaliana worked out at 6%.

In experiment [1], `O=C(Nc1cccc(NC(=O)c2ccccc2-c2ccccc2C(=O)O)c1)c1ccco1` [PJL-60] returned a Kd of 1.27 µM. In experiment [2], the FP % inhibition is given as 32% and the IC50 worked out at 4.8 µM. The inhibition at 50 µM with Arabidopsis thaliana was 0%.

As for `O=C(Nc1nccs1)c1cccc(NC(=O)c2ccccc2-c2ccccc2C(=O)O)c1` [PJL-62], the equilibrium dissociation constant (Kd) in experiment [1] was 2 µM. In addition, in experiment [2], the FP % inhibition came to 31% and the IC50 was found to be 6.7 µM. Further, the inhibition at 50 µM with Arabidopsis thaliana is 0%.

Compound `O=C(Nc1cccc(O)c1)c1cccc(NC(=O)c2ccccc2-c2ccccc2C(=O)O)c1` [PJL-63] had a Kd in experiment [1] of 1.48 µM. In addition, in experiment [2], the FP % inhibition is 34% and the IC50 is 6.3 µM. The inhibition at 50 µM in the experiment with Arabidopsis thaliana is 12%.

Take `O=C(O)c1ccccc1-c1ccccc1C(=O)Nc1cccc(O)c1` [PJL-64]: in experiment [1], the affinity, expressed as Kd, was 3.4 µM. Also, in experiment [2], the FP % inhibition is on record as 23% and the IC50 amounted to 12.8 µM. Moreover, in the experiment on Arabidopsis thaliana, the inhibition at 50 µM was 23%.

In the case of `O=C(O)c1ccccc1-c1ccccc1C(=O)Nc1cccc(-c2nc3ccccc3[nH]2)c1` [PJL-65], the Kd in experiment [1] was 1.77 µM. In addition, in experiment [2], the FP % inhibition worked out at 38% and the IC50 was 4 µM. Further, in the experiment with Arabidopsis thaliana, the inhibition at 50 µM stood at 0%.

Compound `CCc1nnc(NC(=O)c2ccccc2-c2ccccc2C(=O)O)s1` [PJL-66] came in with a Kd in experiment [1] of 8.6 µM. Further, in experiment [2], the FP % inhibition was determined as 17% and the IC50 is 30.8 µM. The inhibition at 50 µM in the experiment on Arabidopsis thaliana was 0%.

In experiment [1], `CC(C)(C)NC(=O)c1ccc(NC(=O)c2ccccc2-c2ccccc2C(=O)O)cc1` [PJL-67] had a Kd of 2.38 µM. In addition, in experiment [2], the FP % inhibition is recorded as 30% and the half-inhibitory concentration (IC50) stood at 20.9 µM. Moreover, the inhibition at 50 µM in the experiment with Arabidopsis thaliana was 9%.

In turn, `O=C(O)c1ccccc1-c1ccccc1C(=O)Nc1cccc(NNc2nccs2)c1` [PJL-68] came in with a Kd in experiment [1] of 3.4 µM. In addition, in experiment [2], the FP % inhibition came to 32% and the IC50 was 10 µM. For the same compound, the inhibition at 50 µM in the experiment with Arabidopsis thaliana came to 0%.

Take `O=C(O)c1cc2c(c(S(=O)(=O)Nc3cccc(-c4noc(C5CCCO5)n4)c3)c1)CCC2` (stereo not drawn) [PJL-69]: the affinity in experiment [1], expressed as Kd, was 8.12 µM. Further, in experiment [2], the FP % inhibition is on record as 21%.

`O=C(O)c1cc2c(c(S(=O)(=O)Nc3cccc(-c4n[nH]c(C5CC5)n4)c3)c1)CCC2` [PJL-71] registered a Kd in experiment [1] of 6.11 µM. Also, in experiment [2], the FP % inhibition is listed as 24% and the IC50 was 21 µM. Moreover, in the experiment with Arabidopsis thaliana, the inhibition at 50 µM was 17%.

`O=C(O)c1cc2c(c(S(=O)(=O)Nc3cccc(-n4cccn4)c3)c1)CCC2` [PJL-76] yielded a Kd in experiment [1] of 18.3 µM. The FP % inhibition in experiment [2] turned out to be 16%. The inhibition at 50 µM with Arabidopsis thaliana worked out at 0%.

`O=C(O)c1cc(F)ccc1NS(=O)(=O)c1cnc(-c2ccccc2)o1` [PJL-81] registered a Kd in experiment [1] of 28 µM. For the same compound, in experiment [2], the FP % inhibition was 23% and the IC50 is 32 µM. The inhibition at 50 µM in the experiment with Arabidopsis thaliana came out at 15%.

For the compound `O=C(O)c1ccccc1NS(=O)(=O)c1cnc(-c2ccccc2)s1` [PJL-83], the Kd in experiment [1] worked out at 9.9 µM. Moreover, in experiment [2], the FP % inhibition is recorded as 17% and the IC50 stood at 74 µM. In the experiment with Arabidopsis thaliana, the inhibition at 50 µM is 0%.

Compound `O=C(O)c1cc(F)ccc1NS(=O)(=O)c1cnn(-c2cccc(C(F)(F)F)c2)c1` [PJL-84] gave a Kd in experiment [1] of 10.9 µM. In experiment [2], the FP % inhibition was determined as 24% and the IC50 worked out at 44 µM. Also, in the experiment on Arabidopsis thaliana, the inhibition at 50 µM stood at 47%.

As to `O=C(Cc1ccccc1C(=O)O)Nc1cccc(C(=O)Nc2nccs2)c1` [PJL-93], in experiment [1], the Kd came out at 5.3 µM. In experiment [2], the FP % inhibition is listed as 21%. For the same compound, the inhibition at 50 µM with Arabidopsis thaliana was determined as 0%.

The compound `O=C(O)c1cccc(NC2=C(Cl)C(=O)N(c3ccc(Cl)c(Cl)c3)C2=O)c1` [PJL-103] registered a Kd in experiment [1] of 9.37 µM. In addition, in experiment [2], the FP % inhibition came to 21% and the IC50 worked out at 73 µM. Also, in the experiment on Arabidopsis thaliana, the inhibition at 50 µM is 0%.

Consider `Cc1cc(-c2cc(NC(=O)c3ccccc3-c3ccccc3C(=O)O)[nH]n2)ccc1OCCN1CCOCC1` [PJL-106], for which binding in experiment [1] was characterised by a dissociation constant (Kd) of 0.94 µM. For the same compound, in experiment [2], the FP % inhibition is given as 45% and the IC50 stood at 1.9 µM. Also, the inhibition at 50 µM in the experiment with Arabidopsis thaliana worked out at 0%.

As to `NCCc1ccc(-c2csc(NC(=O)c3ccccc3-c3ccccc3C(=O)O)n2)cc1` [PJL-107], the Kd in experiment [1] came out at 0.32 µM. In addition, in experiment [2], the FP % inhibition was determined as 41% and the IC50 stood at 1.9 µM. For the same compound, in the experiment with Arabidopsis thaliana, the inhibition at 50 µM worked out at 29%.

With `COc1ccc(C(=O)O)c(NS(=O)(=O)c2cnn(-c3cccc(C(F)(F)F)c3)c2)c1` [PJL-114], in experiment [1], binding was put at a Kd of 12 µM. Also, in experiment [2], the FP % inhibition is recorded as 17% and the IC50 is 41 µM.

As for `CC(C)CNC(=O)c1cccc(NC(=O)c2ccccc2-c2ccccc2C(=O)O)c1` [PJS-120], in experiment [1], the “direct binding to AtOASS by ITC (in vitro screening of purchased virtual hits)” value is given as “showed direct binding to AtOASS by ITC”.

The values above are taken from patent publication US20250008959A1, “HERBICIDES AND USE THEREOF” (Projini Agchem LTD, priority 2021, published 2025).
